Test results from US20240018105A1, “TROPOLONE DERIVATIVES AND TAUTOMERS THEREOF FOR IRON REGULATION IN ANIMALS” (Kinesid Therapeutics, Inc., priority 2019, published 2024).

Assays:
[1] = test system: DMT1-deficient Caco-2 cells; assay: shDMT1-Caco2 55Fe transport assay; format: cell-based; details: Caco-2
Text: Assay 2: shDMT1-Caco2 ^55Fe Transport Assay to Assess Ligand Ability in Transporting Fe (III)
Cells: DMT1-deficient Caco-2 cells (alias: “shDMT1,” or “4A” cells) were from Grillo et al. Science, 2017, and were cryopreserved in liquid nitrogen prior to use.
Reagents and supplies: ^55FeCl3 was obtained from PerkinElmer (Boston, MA). Iron(III) chloride (FeCl3) hexahydrate was obtained from Sigma. Dulbecco's Modified Eagle Medium (DMEM), fetal bovine serum (FBS), L-glutamine, MEM nonessential amino acids, penicillin-streptomycin, G418, formic acid, methanol, high-purity water, ammonium formate, dimethyl sulfoxide (DMSO) were purchased from Fisher Scientific. Propranolol, atenolol and carbutamide were obtained from Sigma-Aldrich Chemical Company (St Louis, MO). Scintillation cocktail was obtained from Research Product International Co. (Mount Prospect, IL). Stericup filter system (PES membrane, 0.22 um pore size) was purchased from Fisher Scientific. Coming item #3378 24-well transwell insert plates. Test articles: known compounds hinokitiol and deferiprone were purchased from Sigma. They are tested side by side with the small molecule ligands disclosed in this application. DMSO stocks (10 mM, which is 1,000× of the 10 μM dose level) of hinokitiol or test articles were prepared. A stock solution of 25 mM deferiprone in DMSO was prepared. The DMSO stock solutions were stored at −20° C. or below when not in use.
The growth medium was prepared according to the following table
Apical media (serum free DMEM, 10 mM MES, pH 6.5) was prepared. Apical master mix media was prepared fresh with the addition of 200 nM ^55Fe before each experiment. For the negative control propranolol and atenolol wells, 200 nM of non-radioactive iron was used.
The basolateral media was serum-free DMEM, 10 mM HEPES, 2% bovine serum albumin (BSA), pH 7.4.
For each experiment, cells were seeded into the 24-well transwell plates (0.5 mL of 50,000 cells/mL) with growth media. The basolateral companion plate was loaded with 1 mL of growth media. After 12-24 hr, both the apical and basolateral chamber were replaced with growth media. The apical media was changed 3× per week for 21-28 days, including a media change exactly 48 hr before the assay date.
On the assay day, the TEER values were measured and the average TEER values was obtained. Individual wells with TEER vaule >35% lower than the average of all wells were excluded. For the qualified wells, the apical layer (twice) and basolaterial (once) chambers were washed with PBS. The basolateral companion plate was then filled with 1 mL of basolateral media. Via addition down the side-wall of the apical well, 300 μL per well of the apical assay master mix, with the indicated dose level of test article, was added. Each dose was tested in triplicate. The plates were incubated (5% CO2 and 90% humidity at 37° C.) for the indicated timepoints. At each indicated timepoint, the basolateral supernatant was gently mixed via pipetting, and 200 μL of the basolateral supernatant was transferred to scintillation vials. To each scintillation counting vial, 5 mL of scintillation cocktail fluid was added. For each scintillation vial, the radioactivity (CPM) was determined with liquid scintillation counter LS6500. The counting time per vial was 5 min.
All raw CPM values are divided by the average value of blank DMSO solution to give a fold of change above the DMSO value. The mean and standard deviation of each compound at each concentration level and at each time point measured was calculated to give the fold change (fc) value.
For rank order compounds, the fc value of a ligand at 4 h time point is further divided by the fold change (fc) value of hinokitiol (a positive control compound) at an equimolar concentration to arrive at the FC (normalized fold of change) value. Data reported in Tables 1 and 2 is 4 hr time point FC=fc-ligand @ 3 uM/fc-hino @ 3 uM, and FC hino=1.

[2] = Ligand facilitated Fe(III) efflux from liposomes; details: 10 uM ligand concentration
Procedure: Assay 1: Ligand Facilitated Fe(III) Efflux from Liposomes Preparation of POPC (1-palmitoyl-2-oleoyl-sn-glycero-3-phosphocholine): Cholesterol Liposomes:
A 1M buffer solution of MES and Tris was prepared by dissolving 121.14 grams of Tris base and 213.25 grams of MES hydrate in 500 mL of MilliQ water and adjusted to pH7.0 using an […] HCl solution before bringing the total volume of the solution to 1 L. A 500 mM solution of FeCl3 was prepared by dissolving 0.811 grams of anhydrous FeCl3 in 10 mL of a 0.1M H2SO4 aqueous solution. Inside buffer is prepared in a 50 mL falcon tube, which was added with 25 mL of MilliQ water, 1.61 g of sodium citrate, 1.5 mL of the above FeCl3 solution, and 2.5 mL of the 1M MES/Tris HCl buffer (pH=7.0), and finally additional MilliQ H2O to bring to a 50 mL final volume.
Lipid solution is prepared by dissolving 206.9 mg of POPC (1-palmitoyl-2-oleoyl-sn-glycero-3-phosphocholine) and 8.6 mg of cholesterol in 10 mL of ethanol.
The lipids solution and the inside buffer solution are independently loaded into 10 mL luer lock syringes for loading into a virgin cartridge on a Precision Nanosystems NanoAssembler to prepare unilamaller liposomes with the following parameters: 7.5 mL total volume, 1.5:1 mixing ratio of inside buffer:lipids solution, 8 mL/min flow rate, ambient temperature, 0.35 mL start waste, and 0.05 mL of end waste. 7.5 mL of liposomes is harvested for purification on a 6-inch long, 1-inch diameter Sephadex G-50 column wetted in 600 mM sodium ascorbate and 50 mM MES/Tris HCl pH 7.0 buffer. This buffer also serves as the column running buffer. The crude liposome solution is carefully loaded with minimal volume of running buffer above the top of the Sphadex, allowed to enter the matrix, and the column is run with the continued addition of running buffer. The eluting liposomes, observed as a milky and turbid solution, are collected until free iron begins to elute (observed as a deep purple color) and the fractions are pooled for phosphorus quantitation.
Phosphorus content of eluted liposomes was determined by the process outlined below. 10 uL of liposome elution and a running buffer blank are added to a 5 mL glass vial containing 450 uL of a 8.9 M aqueous H2SO4 solution, the mixture is heated to 225° C. for 25 minutes in an aluminum heat block to hydrolyze POPC and cooled for 5 minutes. 200 ul of a 30% hydrogen peroxide aqueous solution is added to each vial and heated to 225° C. for 25 minutes. After cooling, the phosphorus content was determined using an Abcam Phosphate Assay kit, with buffer subtracted phosphorus levels determined against a standard curve of phosphate included in the kit. Liposomes were diluted to 1 mM phosphate in Running Buffer for use in assays after accounting for dilutions made during phospholipid digestion.
Determination of the rate at which a small molecule ligand liberates (transport) Ferric iron from liposomes is performed in clear bottom black 384-well plates on a Spectramax i3x set to read the absorbance at 562 nm in the kinetic mode every 60 seconds for 120 minutes. 1 uL of serially diluted DMSO stock solution of a small molecule ligand is added to wells in triplicate to give the final concentrations of 40, 20, 10, 5, 2.5, and 1.25 uM of the ligand at 80 μL final volume, followed by addition of 1 μL of 100 mM Ferrozine in water to give a final concentration of 1 mM ferrozine. 78 uL of liposomes diluted to 1 mM phosphorus in running buffer is added to wells as quickly as possible (using a digital repeater mulchannel pipette) with the kinetic read initiated as rapidly as possible after addition of liposomes to all wells. Typically, eight compounds at six concentrations are tested in triplicate simultaneously.
Upon completion of kinetic read, the data for individual reads is fitted to a single phase association regression with the equation Y=(Y0−YMax)^(−kX)+YMax, with Y being the 562 absorbance value and X being time in minutes. […]

Row | SMILES | Caco2 shDMT1 transport FC @ 3 μM, 4h [1] | Liposome Fe transport kefflux at 10 10 μM ([2]; Table 1) | Liposome Fe transport Kefflux at 10 μM ([2]; Table 2) | Liposome Fe transport Kefflux at 10 μM ([2]; Table 1)
1 | O=c1ccc(-c2cnccc2F)ccc1O [Ex.51, 5-(4-fluoropyridin-3-yl)-2-hydroxycyclohepta-2,4,6-trien-1-one] | 0.01-0.5 | 5-7.5 | – | –
2 | O=c1cccc(-c2cncc(F)c2F)cc1O [Ex.2, 4-(4,5-difluoropyridin-3-yl)-2-hydroxycyclohepta-2,4,6-trien-1-one] | 0.01-0.5 | 0.1-5 | – | –
3 | O=c1cccc(-c2cncnc2)cc1O [Ex.29, 2-hydroxy-4-(pyrimidin-5-yl)cyclohepta-2,4,6-trien-1-one] | 0.01-0.5 | 5-7.5 | – | –
4 | O=C(O)C(F)(F)F.O=c1cccc(-c2ccncn2)cc1O [Ex.48, 2-hydroxy-4-(pyrimidin-4-yl)cyclohepta-2,4,6-trien-1-one] | 0.01-0.5 | 0.1-5 | – | –
5 | Cc1cc(-c2cccc(=O)c(O)c2)cnc1N [Ex.56, 4-(6-amino-5-methylpyridin-3-yl)-2-hydroxycyclohepta-2,4,6-trien-1-one] | 0.01-0.5 | 0.1-5 | – | –
6 | O=c1cccc(-c2cccnc2)cc1O [Ex.11, 2-hydroxy-4-(pyridin-3-yl)cyclohepta-2,4,6-trien-1-one] | 0.01-0.5 | 0.1-5 | – | –
7 | O=c1ccccc(-c2cccc(F)n2)c1O [Ex.69, 3-(6-fluoropyridin-2-yl)-2-hydroxycyclohepta-2,4,6-trien-1-one] | 0.01-0.5 | – | 10-25 | –
8 | Cc1ncccc1-c1cccc(=O)c(O)c1 [Ex.53, 2-hydroxy-4-(2-methylpyridin-3-yl)cyclohepta-2,4,6-trien-1-one] | 0.01-0.5 | 0.1-5 | – | –
9 | N#Cc1cncc(-c2cccc(=O)c(O)c2)c1 [Ex.4, 5-(6-hydroxy-5-oxocyclohepta-1,3,6-trien-1-yl)nicotinonitrile] | 0.01-0.5 | 0.1-5 | – | –
10 | COc1ccc(-c2cccc(=O)c(O)c2)cn1 [Ex.19, 2-hydroxy-4-(6-methoxypyridin-3-yl)cyclohepta-2,4,6-trien-1-one] | 0.01-0.5 | 0.1-5 | – | –
11 | O=c1ccccc(-c2cc(F)ccn2)c1O [Ex.70, 3-(4-fluoropyridin-2-yl)-2-hydroxycyclohepta-2,4,6-trien-1-one] | 0.01-0.5 | – | 10-25 | –
12 | Cc1ncc(-c2ccccc(=O)c2O)cn1 [Ex.34, 2-hydroxy-3-(2-methylpyrimidin-5-yl)cyclohepta-2,4,6-trien-1-one] | 0.01-0.5 | 0.1-5 | – | –
13 | O=c1cccc(-c2cnc(N3CCOCC3)nc2)cc1O [Ex.42, 2-hydroxy-4-(2-morpholinopyrimidin-5-yl)cyclohepta-2,4,6-trien-1-one] | 0.01-0.5 | 7.5-10 | – | –
14 | Cc1c(F)cncc1-c1cccc(=O)c(O)c1 [Ex.46, 4-(5-fluoro-4-methylpyridin-3-yl)-2-hydroxycyclohepta-2,4,6-trien-1-one] | 0.01-0.5 | 5-7.5 | – | –
15 | O=c1cccc(-c2ccncc2F)cc1O [Ex.50, 4-(3-fluoropyridin-4-yl)-2-hydroxycyclohepta-2,4,6-trien-1-one] | 0.01-0.5 | 0.1-5 | – | –
16 | O=c1ccccc(-c2cncc(F)c2)c1O [Ex.24, 2-(5-fluoropyridin-3-yl)-7-hydroxycyclohepta-2,4,6-trien-1-one] | 0.01-0.5 | 7.5-10 | – | –
17 | CC(C)c1ccc(O)c(=O)c(-c2cncc(F)c2)c1 [Ex.61, 2-(5-fluoropyridin-3-yl)-7-hydroxy-4-isopropylcyclohepta-2,4,6-trien-1-one] | 0.01-0.5 | 7.5-10 | – | –
18 | Cc1ncc(-c2ccc(O)c(=O)cc2)c(C)n1.O=C(O)C(F)(F)F [Ex.35, 5-(2,4-dimethylpyrimidin-5-yl)-2-hydroxycyclohepta-2,4,6-trien-1-one] | 0.01-0.5 | 7.5-10 | – | –
19 | O=c1c(O)ccccc1-c1ccncn1 [Ex.47, 2-hydroxy-7-(pyrimidin-4-yl)cyclohepta-2,4,6-trien-1-one] | 0.01-0.5 | 0.1-5 | – | –
20 | COc1ncc(-c2cccc(=O)c(O)c2)cn1 [Ex.30, 2-hydroxy-4-(2-methoxypyrimidin-5-yl)cyclohepta-2,4,6-trien-1-one] | 0.01-0.5 | 0.1-5 | – | –
21 | Cc1c(O)c(=O)ccn1C [deferiprone, reference compound] | 0.02-0.03 | – | – | 0
